Data from US12384740B2, “Cationic lipids and transfection methods” (Factor Bioscience Inc., priority 2019, dated 2025).

Columns and labels:
Format in all cases: cell-based
[1] = system: human peripheral blood mononuclear cells (hPBMCs); experiment: Transfection of hPBMCs with GFP RNA (FIG. 4); conditions: 400 ng GFP RNA; 100% FBS; images 16 hours following transfection; both lipid-to-RNA mass ratios tested
Method: (§1) FIG. 1 depicts primary human epidermal keratinocytes cultured in a 24-well plate, and transfected with 400 ng per well of in vitro transcribed RNA encoding green fluorescent protein (GFP) complexed with the indicated lipid and with the indicated mass ratio of lipid to RNA. Complexation was performed in DMEM, and transfections were performed in 100% fetal bovine serum (FBS). Images were taken eight hours following transfection.
FIG. 4 depicts the results of an experiment conducted as in FIG. 1, but with human peripheral blood mononuclear cells (hPBMCs) instead of keratinocytes. Images were taken 16 hours following transfection. “LF3000” indicates cells transfected with LIPOFECTAMINE 3000 (cationic liposome formulation) commercial transfection reagent. “Neg.” indicates un-transfected cells.
(§2) Stock solutions of lipid in ethanol were prepared at concentrations of between 5 mg/mL and 20 mg/mL and stored at −20° C. To perform transfections, nucleic acid was first diluted in DMEM (1 μg of nucleic acid in 50 μL of DMEM), then the desired amount of lipid stock solution was added. After adding the lipid, the solution was mixed thoroughly, and complexes were allowed to form for between about 5 minutes and about 25 minutes before adding to cells. For the experiments depicted in FIG. 1 through FIG. 6, the lipid was used without the acetone purification described in Example 5.

[2] = system: confluent layer of primary human epidermal keratinocytes; experiment: Transfection of a confluent layer of primary human epidermal keratinocytes with GFP RNA (FIG. 5A/5B); conditions: 400 ng GFP RNA; 100% FBS; images 24 hours following transfection; both lipid-to-RNA mass ratios tested
Method: as §1
FIG. 5A depicts the results of an experiment conducted as in FIG. 4, but with a confluent layer of primary human epidermal keratinocytes instead of hPBMCs. Images were taken 24 hours following transfection.
FIG. 5B depicts the experiment of FIG. 5A, shown at higher magnification.
as §2

[3] = system: neonatal human epidermal keratinocytes (HEKn); experiment: Transfection of HEKn with GFP-encoding RNA complexed with lipid, mean fluorescence intensity per cell (Table 1); conditions: 20,000 HEKn per well, 24-well plate; 100 ng in vitro transcribed GFP RNA; 24 hours after transfection
Method: as §2, with “5. Table 1 depicts the results of an experiment in which 20,000 neonatal human epidermal keratinocytes (HEKn) per well of a 24-well plate were transfected with 100 ng of in vitro transcribed RNA encoding green fluorescent protein (GFP) complexed with the indicated lipids. Fluorescence was measured 24 hours after transfection. Numbers indicate mean fluorescence intensity per cell (a.u.).” for “5.”

[4] = system: primary human adult dermal fibroblasts; experiment: Transfection of primary human adult dermal fibroblasts with GFP RNA (FIG. 6A/6B); conditions: 400 ng GFP RNA; 100% FBS; images 16 hours following transfection; both lipid-to-RNA mass ratios tested
Method: as §1
FIG. 6A depicts the results of an experiment conducted as in FIG. 4, but with primary human adult dermal fibroblasts instead of hPBMCs. Images were taken 16 hours following transfection.
FIG. 6B depicts the experiment of FIG. 6A, shown at higher magnification.
as §2

[5] = system: primary human epidermal keratinocytes; experiment: Transfection of primary human epidermal keratinocytes with GFP RNA in 100% FBS (FIG. 1, 2, 7)
Method: as §1
FIG. 2 depicts the experiment of FIG. 1, with fluorescence measured at the indicated time points following transfection using DHDLinS.
FIG. 3 depicts the results of an experiment conducted as in FIG. 1, but with the indicated amounts of RNA (in nanograms) and the indicated lipid-to-RNA mass ratios (in micrograms of lipid per microgram of RNA). Images were taken 16 hours following transfection. As shown in the figure, all RNA amounts and lipid-to-RNA mass ratios tested yielded a fluorescent signal.
FIG. 7 depicts the results of an experiment conducted as in FIG. 3, but with DHDLinS purified by extraction with acetone as described in Example 5.
as §2

[6] = time course of FIG. 1 experiment, 400 ng GFP RNA, 100% FBS

Compound	Fluorescence Intensity (mean fluorescence intensity per cell) [3]	also measured
CCCCC/C=C\C/C=C\CCCCCCCCN(CCCCN(CCCCCCCC/C=C\C/C=C\CCCCC)CC(O)CN)CC(O)CN (centres unmarked) [DHDLinS, N^1,N^4-dilinoleyl-N^1,N^4-di-(2-hydroxy-3-aminopropyl)-diaminobutane]	8009 a.u.	Transfection of hPBMCs (GFP fluorescence images) [1]: effectively transfected; Transfection of confluent keratinocytes (GFP fluorescence images) [2]: effectively transfected; Transfection of dermal fibroblasts (GFP fluorescence images) [4]: effectively transfected; Transfection efficiency (GFP fluorescence images) ([5]; 400 ng GFP RNA per well, transfection in 100% FBS, images eight hours following transfection, lipid without acetone purification): transfected with high efficiency; Change of fluorescence signal with lipid-to-RNA mass ratio ([5]; DHDLinS purified by extraction with acetone, lipid-to-RNA mass ratios greater than 2 μg/μg, images 16 hours following transfection): minimal increase in fluorescence signal; Signal intensity and number of fluorescent cells over time [5, 6]: increased for several hours following transfection; Time of first detection of fluorescent signal following transfection [5, 6]: detected one hour following transfection
CCCCC/C=C\C/C=C\CCCCCCCCN(CCCCCN(CCCCCCCC/C=C\C/C=C\CCCCC)CC(O)CN)CC(O)CN (centres unmarked) [Formula I (n = 5), N^1,N^5-dilinoleyl-N^1,N^5-di-(2-hydroxy-3-aminopropyl)-diaminopentane]	7554 a.u.	–
CCCCC/C=C\C/C=C\CCCCCCCCN(CCCCCCN(CCCCCCCC/C=C\C/C=C\CCCCC)CC(O)CN)CC(O)CN (centres unmarked) [Formula I (n = 6), N^1,N^6-dilinoleyl-N^1,N^6-di-(2-hydroxy-3-aminopropyl)-diaminohexane]	8596 a.u.	–
CCCCC/C=C\C/C=C\CCCCCCCCN(CCCCCCCCN(CCCCCCCC/C=C\C/C=C\CCCCC)CC(O)CN)CC(O)CN (centres unmarked) [Formula I (n = 8), N^1,N^8-dilinoleyl-N^1,N^8-di-(2-hydroxy-3-aminopropyl)-diaminooctane]	9170 a.u.	–
CCCCC/C=C\C/C=C\CCCCCCCCN(CCCCCCCCCCN(CCCCCCCC/C=C\C/C=C\CCCCC)CC(O)CN)CC(O)CN (centres unmarked) [Formula I (n = 10), N^1,N^10-dilinoleyl-N^1,N^10-di-(2-hydroxy-3-aminopropyl)-diaminodecane]	7842 a.u.	–
CCCCC/C=C\C/C=C\CCCCCCCCN(CCCCCCCCCCCCN(CCCCCCCC/C=C\C/C=C\CCCCC)CC(O)CN)CC(O)CN (centres unmarked) [Formula I (n = 12), N^1,N^12-dilinoleyl-N,N^12-di-(2-hydroxy-3-aminopropyl)-diaminododecane]	5631 a.u.	–
N^1,N^2-dilinoleyl-N^1,N^2-di-(2-hydroxy-3-aminopropyl)-diaminoethane [Formula I (n = 2)]	6623 a.u.	–
